Measurements taken from US20170327556A1, “CARTILAGE-BINDING FUSION PROTEINS” (Merrimack Pharmaceuticals, Inc., priority 2013, published 2017).

Experiments:
BXPC-3 cells = assay: Stimulation of AKT phosphorylation in BXPC-3 cells (pAKT ELISA); format: cell-based; settings: 10 min stimulation, doses in M (Table 4), 6x-Histidine-tagged fusion proteins
Experimental: Fusion proteins comprising IGF-1 and a cartilage matrix binding domain were prepared as described above. Six fusion proteins were prepared: GF-Fus1 (6x-Histidine-tagged), GF-Fus2(6x-Histidine-tagged), GF-Fus3 (6x-Histidine-tagged), GF-Fus4 (6x-Histidine-tagged), GF-Fus5 (6x-Histidine-tagged), and GF-Fus6 (6x-Histidine-tagged). In order to ensure that the growth factor portion of the fusion protein was active in the fusion proteins, each construct was tested for its ability to stimulate AKT phosphorylation. Wild-type IGF-1 (wtIGF) was included as a control. Bovine chondrocytes were stimulated with a range of doses of each fusion protein, and pAKT levels were measured by ELISA.
For ligand stimulation, chondrocytes were seeded at 200,000 cells/well into 96-well tissue culture plates with 100 μL of chondrocyte culture medium with fetal bovine serum (10% v/v, Life Technologies Cat#16140071). Alternatively, BXPC-3 cells, a pancreatic adenocarcinoma cell line (ATCC® CRL-1687™), were seeded at 30,000 cells/well into 96-well tissue culture plates with 100 μL of BXPC-3 medium (RPMI-1640, e.g., ATCC® 30-2001™), with L-glutamine (2 mM), Penicillin-Streptomycin (1×, Gibco® 15140-122), Fetal Bovine Serum (10% v/v, Life Technologies Cat#16140071)). After 24 hrs, both chondrocytes and BXPC-3 cells were rinsed with 100 μL of sterile PBS (pH=7.4) per well and 100 μl of chondrocyte or BXPC-3 culture medium (without fetal bovine serum) was added to the corresponding cell type. After an additional 24 hrs, cells were stimulated with the doses of fusion proteins set forth in Table 4 by adding 25 μL of fusion protein at a concentration 5 times greater than the concentration listed in Table 4 to the 100 μL of medium already in the wells. After 10 min of stimulation, fusion protein was removed and wells were rinsed in ice cold PBS (pH=7.4). 50 μL/well of cell extraction buffer (Invitrogen cat# FNN0011) was added and incubated with shaking at 4° C. for 30 minutes. Lysates were then frozen at −80° C.
Corning high binding 384 well black ELISA plates (cat#3577) are coated with 30 μL of capture antibody at 4 μg/mL (anti-AKT1 total capture antibody, Upstate, Cat#05-591MG) in PBS (pH=7.4) for 16 hours at room temperature, washed and blocked with […] 2% bovine serum albumin (Sigma Cat# A3294) in PBS (pH=7.4) for 1 hour at room temperature. 20 μL of thawed lysates or recombinant pAKT standards (ten 2-fold serial dilutions of 400 ng recombinant human AKT, active (Upstate, Cat#14-276) in PBS (pH=7.4) containing 50% v/v Cell extraction buffer (Invitrogen Cat#FNN0011), 1% bovine serum albumin (Sigma Cat# A3294), 0.05% Tween20) are applied to the coated plate and incubated for 2 hours at room temperature. After washing 3 times with 100 μL/well of 0.05% Tween-20/PBS (pH=7.4) bound phospho-AKT is detected using Phospho-AKT (Ser473)(587F11)-biotinylated (Cell Signaling, Cat#5102), streptavidin-HRP (R&D Systems Cat# DY998, Part #890803), SuperSignal ELISA PicoChemiluminescent Substrate (Thermo Scientific Cat#37069), using a luminometer to detect light emissions at 425 nm.

[1] = system: human ankle and knee cartilage explants; assay: In vitro joint disease model, explanted human cartilage: ^35S-sulfate incorporation; format: cell-based; settings: for sulfated matrix biosynthesis in the absence of cytokines, 16 day combination with Dexamethasone: FIG. 14E black bars; for ^35S-sulfate incorporation, 16 D treatment: protein 16 days in combination with Anti-Infl-1, cytokines, versus Disease control
Experimental: Human cartilage explants are harvested from the knee and ankle of human cadaver donors within 24 hours postmortem. Joints are aseptically dissected by a pathologist to assess gross cartilage morphology by the modified Collins scale (Kuettner, et al., Cartilage degeneration in different human joints. Osteoarthritis Cartilage. 2005; 13(2):93-103) and only grade 0 or 1 joints are used. Full-thickness knee cartilage surfaces are harvested from the femoral-patellar groove and chondyles using a scalpel. Full thickness ankle cartilage is harvested from the dome of talus, proximal area under dome of talus, head of the talus, tibial malleolus and fibular malleolus using a scalpel. Using a 4 mm diameter disposable biopsy punch, full thickness cartilage cores are punched from the cartilage surfaces keeping the superficial zone intact and used as explants in culture.
Explants are cultured in 96-well plates in 300 μL of low glucose DMEM (1× Gibco 11885-084) with added Penicillin-Streptomycin (1×, Gibco 15140-122), ascorbic acid (20 μg/mL, Sigma A4403), proline (400 μM, Sigma P5607-256), non-essential amino acids (1×, Sigma M7145), and HEPES ([…], Gibco 15630-080). Explants from 2-3 donors (4-6 explants per donor) are used for each treatment condition for a total explant number of 12-18 per condition. Donor ages were: 67 year male ankle, 71 year male ankle, 76 year female ankle, 59 year male knee, 34 year male knee, and 63 year female knee. Medium is changed every 2 days. On day 14, the medium is supplemented with 5 μCi/mL of ^35S-sodium sulfate (Perkin Elmer NEX041H005MC, 5 mCi).
Time points are taken at day 16 as follows. Explant tissue is washed four times for 30 min each (2 hr total) in 1 mM unlabeled sodium sulfate in PBS. Each explant is weighed wet and frozen at −20° C. until digestion. Tissue digestion is performed with Proteinase K (Roche cat #3115879001) and each explant is digested in 1 mL 500 μg/mL Proteinase K in 50 mM Tris-HCL, 1 mM calcium chloride pH=8.0 buffer at 60° C. overnight. Measurement of sGAG content and DNA content is performed using standard assay methods such as those described in Hoemann, 2004, Methods in Molecular Medicine: Cartilage and Osteoarthritis. Totowa, N.J.: Humana Press Inc.; p. 127-52. ^35S-sulfate content of the digested cartilage explants is quantified by mixing 20 μL of digest with 250 μL of scintillation fluid (Perkin Elmer cat #1200-439) and counting with A WALLAC 1450 MICROBETA TRILUX scintillation counter.
Treatments were given at the following concentrations: GF-Fus1 13.3 nM=135 ng/mL; and GF-Fus3 13.3 nM=181 ng/mL; Dexamethasone 100 nM=39.2 ng/mL. Growth factor and steroid treatment conditions included the cytokines TNF-alpha (R&D Systems, Cat#210-TA, 25 ng/mL), IL-6 (R&D Systems, Cat#206-IL, 50 ng/mL), and IL-6R alpha (R&D Systems, Cat#227-SR, 250 ng/mL) which were supplied in each medium change. GF-Fus1 and GF-Fus3 were added to fresh medium for either the first 8 days (8 D) or the entire 16 day culture duration (16 D), whereas Dexamethasone was added for the entire 16 days in all cases. Controls were either no cytokines (Healthy) or with cytokines alone (Disease). The outcomes measured from the cartilage explants at day 16 were ^35S-sulfate incorporation, DNA, and sGAG content, and sGAG released to media for all media changes.

Substance	logEC50 Mean (BXPC-3 cells)	sulfated matrix biosynthesis in the absence of cytokines, 16 day combination with Dexamethasone ([1]; human knee chondyle cartilage)	^35S-sulfate incorporation, 16 D treatment ([1]; FIGS. 14A-D)	synthesis of new sulfated cartilage matrix (^35S-sulfate incorporation) ([1]; 13.3 nM, 16 days with cytokines, with and without Dexamethasone, versus Disease)	^35S-sulfate incorporation, 8 D treatment ([1]; protein first 8 days only, Anti-Infl-1 16 days, cytokines, measured final 48 hours of 16 day culture, FIGS. 14A-D)	sulfated matrix biosynthesis in the absence of cytokines, protein removed for the final 8 days ([1]; with Dexamethasone 16 days, human knee chondyle cartilage, FIG. 14E white bars)
GF-Fus1: IGF-1 variant polypeptide Long [R^3]-IGF-1, no fused binding domain; used 6x-Histidine-tagged as control [reference compound]	−8.605	restores sulfated matrix biosynthesis to a level at or above healthy controls	stimulated	–	–	–
GF-Fus6: IGF-1(LR3) fused to CNA344 CB domain	−8.832	–	–	–	–	–
wtIGF: Wild-type IGF-1 (R&D systems 291-G1), control [reference compound]	−9.081	–	–	–	–	–
GF-Fus5: IGF-1(LR3) fused to CNA35 CB domain	−8.969	–	–	–	–	–
GF-Fus3: C-terminal fusion IGF-1(LR3)-PRELP heparin binding domain	−9.231	restores sulfated matrix biosynthesis to a level at or above healthy controls	stimulated	upregulates	equivalent or superior potency to the continuously delivered proteins	sustains sulfated matrix biosynthesis at the level equivalent to continuous 16 day treatment
